Here are results for 1 molecule from paper PMC4904242, “Comparative chemical genomics reveal that the spiroindolone antimalarial KAE609 (Cipargamin) is a P-type ATPase inhibitor” (Scientific Reports, 2016).

The experiment has as its target T1, ScPma1p (Saccharomyces cerevisiae, UniProt P05030).
T1 construct: gene PMA1; ScPma1p-coated secretory vesicles from S. cerevisiae overexpressing ScPMA1
As to the kind of experiment: cell-free vesicle ATPase assay (Pi release). Type of experiment: biochemical.

T1 sequence (P05030 whole entry): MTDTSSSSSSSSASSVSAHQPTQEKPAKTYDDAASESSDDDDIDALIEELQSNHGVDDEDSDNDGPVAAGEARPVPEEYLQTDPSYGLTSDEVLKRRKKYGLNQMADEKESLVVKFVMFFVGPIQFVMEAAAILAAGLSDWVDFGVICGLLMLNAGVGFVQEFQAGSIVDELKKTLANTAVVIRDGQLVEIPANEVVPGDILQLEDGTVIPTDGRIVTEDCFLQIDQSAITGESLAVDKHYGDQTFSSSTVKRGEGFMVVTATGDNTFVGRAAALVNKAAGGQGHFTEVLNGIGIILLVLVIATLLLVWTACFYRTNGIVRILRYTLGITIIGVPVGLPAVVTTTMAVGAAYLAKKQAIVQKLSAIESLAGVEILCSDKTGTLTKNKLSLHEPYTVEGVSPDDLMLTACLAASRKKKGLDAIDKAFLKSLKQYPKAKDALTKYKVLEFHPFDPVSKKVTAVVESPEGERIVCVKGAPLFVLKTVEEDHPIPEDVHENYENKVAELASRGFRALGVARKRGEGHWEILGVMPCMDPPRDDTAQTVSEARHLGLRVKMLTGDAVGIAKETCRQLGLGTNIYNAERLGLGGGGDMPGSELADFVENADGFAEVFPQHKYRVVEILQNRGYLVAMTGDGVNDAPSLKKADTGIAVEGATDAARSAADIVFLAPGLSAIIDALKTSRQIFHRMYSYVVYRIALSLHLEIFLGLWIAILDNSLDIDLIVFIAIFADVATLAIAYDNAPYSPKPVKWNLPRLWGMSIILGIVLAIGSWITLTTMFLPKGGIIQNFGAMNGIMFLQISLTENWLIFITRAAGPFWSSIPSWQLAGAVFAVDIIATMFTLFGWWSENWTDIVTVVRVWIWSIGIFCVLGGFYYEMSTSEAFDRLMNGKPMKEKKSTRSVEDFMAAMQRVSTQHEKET

With `C[C@H]1Cc2c([nH]c3cc(Cl)c(F)cc23)[C@@]2(N1)C(=O)Nc1ccc(Cl)cc12` [6′F 7′Cl, KAE609], 81.1 nM corresponded to half-maximal inhibition (IC50).

For orientation: IC50 means the concentration that inhibits the measured activity by half. A lower IC50 goes with higher potency.
